Results: PubChem BioAssay AID330 (DTP/NCI, 2004)
“And” between values parts separate entries of the source, which are not always exact repeats. Equal entries are not always repeated. Inconclusive results and toxic doses are left out. The calls were made as follows: active = survival T/C of 150% or more; inactive = T/C below 125% in these data.

Tested on: P388 leukemia ip, CD2F1 mice, survival T/C
Assay: NCI In Vivo Anticancer Drug Screen. Data for tumor model P388 Leukemia (intraperitoneal) in CD2F1 (CDF1) mice
Conditions: endpoint: median survival time, higher = longer survival
Method in brief: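 Mice carrying the transplanted tumor received test compound or vehicle. Survival was recorded in each group, and the value is the treated-group measurement divided by that of the vehicle-treated control group.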

[1] = dose: 50.0 mg/kg/injection, schedule: Q01DX009 (ip), vehicle: Klucel (hydroxypropylcellulose) (HPC)
[2] = dose: 100.0 mg/kg/injection, schedule: Q01DX009 (ip), vehicle: Klucel (hydroxypropylcellulose) (HPC)
[3] = dose: 200.0 mg/kg/injection, schedule: Q01DX009 (ip), vehicle: Klucel (hydroxypropylcellulose) (HPC)
[4] = dose: 50.0 mg/kg/injection, schedule: Q01DX009 (ip), vehicle: saline with Tween-80
[5] = dose: 100.0 mg/kg/injection, schedule: Q01DX009 (ip), vehicle: saline with Tween-80
[6] = dose: 200.0 mg/kg/injection, schedule: Q01DX009 (ip), vehicle: saline with Tween-80
[7] = dose: 400.0 mg/kg/injection, schedule: Q01DX009 (ip), vehicle: saline with Tween-80
[8] = dose: 50.0 mg/kg/injection, schedule: Q01DX009 (ip), vehicle: saline
[9] = dose: 100.0 mg/kg/injection, schedule: Q01DX009 (ip), vehicle: saline
[10] = dose: 200.0 mg/kg/injection, schedule: Q01DX009 (ip), vehicle: saline
[11] = dose: 100.0 mg/kg/injection, schedule: Q01DX001 (ip), vehicle: saline with Tween-80
[12] = dose: 200.0 mg/kg/injection, schedule: Q01DX001 (ip), vehicle: saline with Tween-80
[13] = dose: 400.0 mg/kg/injection, schedule: Q01DX001 (ip), vehicle: saline with Tween-80
[14] = dose: 12.5 mg/kg/injection, schedule: Q01DX005 (ip), vehicle: saline with Tween-80
[15] = dose: 25.0 mg/kg/injection, schedule: Q01DX005 (ip), vehicle: saline with Tween-80
[16] = dose: 50.0 mg/kg/injection, schedule: Q01DX005 (ip), vehicle: saline with Tween-80
[17] = dose: 400.0 mg/kg/injection, schedule: Q01DX009 (ip), vehicle: Klucel (hydroxypropylcellulose) (HPC)

Measured: T/C

Nc1cc(=O)cc2nn[nH]n12
inactive: [1] 102 % of control | [2] 108 % of control | [3] 101 % of control

CCCCCn1c(Cl)c(C=O)c2ccccc21
inactive: dose: 100.0 mg/kg/injection, schedule: Q04DX002 (ip), vehicle: Klucel (hydroxypropylcellulose) (HPC) 97 % of control | dose: 200.0 mg/kg/injection, schedule: Q04DX002 (ip), vehicle: Klucel (hydroxypropylcellulose) (HPC) 98 % of control | dose: 400.0 mg/kg/injection, schedule: Q04DX002 (ip), vehicle: Klucel (hydroxypropylcellulose) (HPC) 100 % of control

CCCCC(NC(C)=O)C(=O)O (stereo not given)
inactive: [4] 99 % of control and 95 % of control | [5] 98 % of control | [6] 100 % of control and 96 % of control | [7] 100 % of control

CC(C)C(N)CO (stereo not given)
inactive: [8] 107 % of control | [9] 106 % of control | [10] 100 % of control

Cc1ncc([N+](=O)[O-])n1CCOC(=O)c1ccc(F)cc1
inactive: [4] 99 % of control | [5] 92 % of control | [6] 97 % of control

Nc1ccccc1-c1cncnc1N
inactive: [5] 98 % of control | [6] 101 % of control | [7] 106 % of control

CC1(C)CN2C(c3ccccc3)=NN(c3ccccc3)C2(C)C1 (stereo not given)
inactive: [11] 98 % of control | [12] 99 % of control | [13] 100 % of control

O=C(O)CN(CC(=O)O)Cc1cc2c(cc1O)Oc1cc(O)c(CN(CC(=O)O)CC(=O)O)cc1C21OC(=O)c2ccccc21
inactive: [4] 105 % of control | [5] 101 % of control | [6] 97 % of control

COC(c1ccccc1)C(Br)c1ccccc1 (stereo not given)
inactive: [11] 104 % of control | [12] 95 % of control | [13] 104 % of control

C=C(C)C(=O)OC1CC2(C)OC(=CC2=O)C(C)CC2OC(=O)C(=C)C12 (stereo not given)
inactive: dose: 25.0 mg/kg/injection, schedule: Q01DX001 (ip), vehicle: saline with Tween-80 118 % of control | dose: 50.0 mg/kg/injection, schedule: Q01DX001 (ip), vehicle: saline with Tween-80 116 % of control

COC(=O)C1C2CC3c4[nH]c5cc(OC)c(Br)cc5c4CCN3CC2CC(OC(=O)c2cc(OC)c(OC)c(OC)c2)C1OC (stereo not given)
inactive: dose: 3.75 mg/kg/injection, schedule: Q01DX005 (ip), vehicle: Klucel (hydroxypropylcellulose) (HPC) 104 % of control | dose: 7.5 mg/kg/injection, schedule: Q01DX005 (ip), vehicle: Klucel (hydroxypropylcellulose) (HPC) 94 % of control | dose: 15.0 mg/kg/injection, schedule: Q01DX005 (ip), vehicle: Klucel (hydroxypropylcellulose) (HPC) 104 % of control | dose: 30.0 mg/kg/injection, schedule: Q01DX005 (ip), vehicle: Klucel (hydroxypropylcellulose) (HPC) 108 % of control

Nc1ccn(COC(CO)CO)c(=O)n1
inactive: dose: 100.0 mg/kg/injection, schedule: Q04DX002 (ip), vehicle: saline 97 % of control | dose: 200.0 mg/kg/injection, schedule: Q04DX002 (ip), vehicle: saline 98 % of control | dose: 400.0 mg/kg/injection, schedule: Q04DX002 (ip), vehicle: saline 103 % of control

O=C(COP(=O)(OCC(=O)Oc1ccc([N+](=O)[O-])cc1)Oc1ccc([N+](=O)[O-])cc1)Oc1ccc([N+](=O)[O-])cc1
inactive: dose: 25.0 mg/kg/injection, schedule: Q01DX009 (ip), vehicle: other 102 % of control | dose: 50.0 mg/kg/injection, schedule: Q01DX009 (ip), vehicle: other 98 % of control | dose: 100.0 mg/kg/injection, schedule: Q01DX009 (ip), vehicle: other 93 % of control | dose: 200.0 mg/kg/injection, schedule: Q01DX009 (ip), vehicle: other 91 % of control | dose: 400.0 mg/kg/injection, schedule: Q01DX009 (ip), vehicle: other 108 % of control

O=C1CSC(c2ccc(C(F)(F)F)cc2)N1c1nncs1 (stereo not given)
inactive: dose: 60.0 mg/kg/injection, schedule: Q01DX005 (ip), vehicle: saline with Tween-80 99 % of control | dose: 120.0 mg/kg/injection, schedule: Q01DX005 (ip), vehicle: saline with Tween-80 104 % of control | dose: 240.0 mg/kg/injection, schedule: Q01DX005 (ip), vehicle: saline with Tween-80 97 % of control

CCC(C)C(NC(=O)OCc1ccccc1)C(=O)ON1C(=O)CCC1=O (stereo not given)
inactive: dose: 66.0 mg/kg/injection, schedule: Q04DX003 (ip), vehicle: saline with Tween-80 100 % of control | dose: 100.0 mg/kg/injection, schedule: Q04DX003 (ip), vehicle: saline with Tween-80 104 % of control | dose: 150.0 mg/kg/injection, schedule: Q04DX003 (ip), vehicle: saline with Tween-80 109 % of control

[CH3][Ge]([CH3])([CH3])[N]=S=[N][Ge]([CH3])([CH3])[CH3]
inactive: [14] 105 % of control | [15] 100 % of control | [16] 99 % of control and 100 % of control

CCCCN(CCCC)CCCNc1c2c(nc3ccc(Cl)cc13)CCCC2
inactive: [14] 102 % of control | [15] 104 % of control | [16] 99 % of control and 101 % of control

CC(=O)c1ccc(O)c(CN(CCC#N)CCC#N)c1O
inactive: [4] 96 % of control | [5] 89 % of control | [6] 90 % of control

Clc1ccc(/C=C/c2ccc3ccccc3n2)cc1
inactive: [1] 109 % of control | [2] 102 % of control | [3] 107 % of control | [17] 93 % of control

CN(C)C(=O)SC1=C(c2c(Cl)cccc2Cl)C(=O)c2ccccc21
inactive: dose: 50.0 mg/kg/injection, schedule: Q01DX005 (ip), vehicle: Klucel (hydroxypropylcellulose) (HPC) 108 % of control and 112 % of control | dose: 100.0 mg/kg/injection, schedule: Q01DX005 (ip), vehicle: Klucel (hydroxypropylcellulose) (HPC) 99 % of control and 112 % of control | dose: 200.0 mg/kg/injection, schedule: Q01DX005 (ip), vehicle: Klucel (hydroxypropylcellulose) (HPC) 121 % of control and 122 % of control

CC(=O)Nc1ccc[nH]c1=O
inactive: dose: 25.0 mg/kg/injection, schedule: Q01DX009 (ip), vehicle: Klucel (hydroxypropylcellulose) (HPC) 108 % of control and 96 % of control | dose: 25.0 mg/kg/injection, schedule: Q01DX009 (ip), vehicle: saline 99 % of control and 110 % of control | [1] 99 % of control and 104 % of control | [8] 108 % of control and 92 % of control | [2] 99 % of control and 104 % of control | [9] 103 % of control and 117 % of control | [3] 101 % of control and 96 % of control | [10] 101 % of control and 103 % of control | [17] 109 % of control and 96 % of control | dose: 400.0 mg/kg/injection, schedule: Q01DX009 (ip), vehicle: saline 104 % of control and 108 % of control

OCC1OC2OC3C(CO)OC(OC4C(CO)OC(OC5C(CO)OC(OC6C(CO)OC(OC7C(CO)OC(OC8C(CO)OC(OC1C(O)C2O)C(O)C8O)C(O)C7O)C(O)C6O)C(O)C5O)C(O)C4O)C(O)C3O (stereo not given)
inactive: [8] 100 % of control | [9] 94 % of control

O=c1n(-c2ccccc2)c(=O)n2c(=O)n(-c3ccccc3)c(=O)n12
inactive: [1] 105 % of control | [2] 93 % of control | [3] 89 % of control

CCCCCc1nc2c(c3c1CCCC3)CCCC2
inactive: dose: 60.0 mg/kg/injection, schedule: Q01DX005 (ip), vehicle: saline 98 % of control | dose: 120.0 mg/kg/injection, schedule: Q01DX005 (ip), vehicle: saline 106 % of control | dose: 240.0 mg/kg/injection, schedule: Q01DX005 (ip), vehicle: saline 107 % of control

C/C(N=NC(=S)N1CC(C)OC(C)C1)=C1\C=CC=CN1O (stereo not given)
inactive: [16] 111 % of control | dose: 100.0 mg/kg/injection, schedule: Q01DX005 (ip), vehicle: saline with Tween-80 104 % of control | dose: 200.0 mg/kg/injection, schedule: Q01DX005 (ip), vehicle: saline with Tween-80 106 % of control
